According to patent US10752595B2, “Crystalline forms of a bromodomain and extraterminal protein inhibitor drug, processes for preparation thereof, and use thereof” (Crystal Pharmaceutical (Suzhou) Co., Ltd., priority 2016, dated 2020):
≈ marks a conversion by molar mass, not a printed value. Entries after “also recorded” stand apart in the source; their conditions may differ.

Legend:
Assay type in all cases: physicochemical
[1] = Solubility study: saturated solutions in SGF and FeSSIF, concentration by HPLC; conditions: for Solubility FeSSIF: FeSSIF (fed state simulated intestinal fluids, pH=5.0)
Text: High Performance Liquid Chromatography (HPLC) data in the present disclosure were collected from an Agilent 1260 with Diode Array Detector (DAD). The HPLC method parameters for purity test in the present disclosure are as follows: • 1. Column: Waters XBridge C18 150×4.6 mm, 5 μm • 2. Mobile Phase: A: 0.1% TFA in H2O • B: 0.1% TFA in Acetonitrile
The prepared apabetalone Form CS2 was suspended into SGF (simulated gastric fluids) and FeSSIF (fed state simulated intestinal fluids, pH=5.0) to obtain saturated solutions. After being equilibrated for 1 h and 24 h, concentrations of the saturated solutions were measured by HPLC.
The prepared Form CS8 was suspended into SGF (simulated gastric fluids) and FeSSIF (fed state simulated intestinal fluids, pH=5.0) to obtain saturated solutions. After being equilibrated for 1 h, concentrations of the saturated solutions were measured by HPLC.
The prepared Form CS13 was suspended into SGF (simulated gastric fluids) and FeSSIF (fed state simulated intestinal fluids, pH=5.0) to obtain saturated solutions. After being equilibrated for 1 h, 4 h and 24 h, concentrations of the saturated solutions were measured by HPLC.
The prepared apabetalone Form CS20 was suspended into SGF (simulated gastric fluids) and FeSSIF (fed state simulated intestinal fluids, pH=5.0) to obtain saturated solutions. After being equilibrated for 1 h, 4 h and 24 h, concentrations of the saturated solutions were measured by HPLC.
The prepared solid of apabetalone Form CS1 was suspended into SGF (simulated gastric fluids) and FeSSIF (fed state simulated intestinal fluids, pH=5.0) to obtain saturated solutions. After being equilibrated for 1 h, 4 h and 24 h, concentrations of the saturated solutions were measured by HPLC.
The prepared solid of apabetalone Form CS7 was suspended into SGF (simulated gastric fluids) and FeSSIF (fed state simulated intestinal fluids, pH=5.0) to obtain saturated solutions. After being equilibrated for 1 h, 4 h and 24 h, concentrations of the saturated solutions were measured by HPLC.
The prepared solid of apabetalone Form CS9 was suspended into SGF (simulated gastric fluids) and FeSSIF (fed state simulated intestinal fluids, pH=5.0) to obtain saturated solutions. After being equilibrated for 1 h, 4 h and 24 h, concentrations of the saturated solutions were measured by HPLC.
The prepared solid of apabetalone Form CS11 was suspended into SGF (simulated gastric fluids) and FeSSIF (fed state simulated intestinal fluids, pH=5.0) to obtain saturated solutions. After being equilibrated for 1 h, 4 h and 24 h, concentrations of the saturated solutions were measured by HPLC.
The prepared solid of apabetalone Form CS4 was suspended into SGF (simulated gastric fluids) and FeSSIF (fed state simulated intestinal fluids, pH=5.0) to obtain saturated solutions. After being equilibrated for 1 h, 4 h and 24 h, concentrations of the saturated solutions were measured by HPLC.

[2] = Stability study: open-dish storage in constant temperature and humidity chambers, XRPD and purity check; conditions: for Form change and purity decrease after storage: open dish
Method: Form CS8 was placed in a constant temperature and humidity chamber at 25° C./60% RH for 2 weeks in open dish. Crystalline form of the sample were tested by XRPD and impurity of the sample were checked. […] Crystalline form of the sample were tested by XRPD and impurity of the sample were checked. […] Two samples of apabetalone Form CS1 were placed in constant temperature and humidity chambers at 25° C./60% RH and 40° C./75% RH for 10 months in open dishes. The samples were characterized by XRPD and chemical impurity. […] Three samples of apabetalone Form CS7 were placed in constant temperature and humidity chambers at 25° C./60% RH and 40° C./75% RH for 4 weeks and 80° C. for 1 day in open dishes. Crystalline form of the sample were tested by XRPD and impurity of the sample were checked. […] Two samples of apabetalone Form CS9 were placed in constant temperature and humidity chambers at 25° C./60% RH and 40° C./75% RH for 10 months in open dishes. Crystalline form of the sample were tested by XRPD and impurity of the sample were tested to check the stability of Form CS9. […] Two samples of apabetalone Form CS11 were placed in constant temperature and humidity chambers at 25° C./60% RH and 40° C./75% RH for 6 weeks in open dishes. Crystalline form of the sample were tested by XRPD and impurity of the sample were tested to check the stability of Form CS11. […] Two samples of apabetalone Form CS4 were placed in open dishes in constant temperature and humidity chambers at 25° C./60% RH and 40° C./75% RH for 10 months. Crystalline form of the sample were tested by XRPD and impurity of the sample were tested to check the stability of Form CS4.

[3] = Hygroscopicity by dynamic vapor sorption (DVS); conditions: for Hygroscopicity class: Chinese Pharmacopoeia 2015 criteria, 80% RH; for Hygroscopicity class / Weight Gain under 80% Relative Humidity: 25° C.; for Weight Gain under 80% Relative Humidity: DVS, about 10 mg of sample; for Form change after DVS test (XRPD): XRPD before and after DVS test
Method: Dynamic Vapor Sorption (DVS) was measured via a SMS (Surface Measurement Systems Ltd.) intrinsic DVS instrument. Its control software is DVS—Intrinsic control software, and its analysis software is DVS—Intrinsic Analysis software. Typical Parameters for DVS test are as follows: • Temperature: 25° C. • Gas and flow rate: N2, 200 mL/min • dm/dt: 0.002%/min • RH range: 0% RH to 95% RH Dynamic vapor sorption (DVS) was applied to test hygroscopicity of Form CS8 in the present disclosure with about 10 mg of sample. […] Dynamic vapor sorption (DVS) was applied to test hygroscopicity of Form CS1 of the present disclosure with about 10 mg of sample. […] Dynamic vapor sorption (DVS) was applied to test hygroscopicity of Form CS7 of the present disclosure with about 10 mg of samples. Dynamic vapor sorption (DVS) was applied to test hygroscopicity of Form CS9 of the present disclosure with about 10 mg of sample. […] Dynamic vapor sorption (DVS) was applied to test hygroscopicity of Form CS4 of the present disclosure with about 10 mg of sample.

[4] = SGF (simulated gastric fluids), equilibrated 1 h
[5] = SGF (simulated gastric fluids), equilibrated 4 h
[6] = SGF (simulated gastric fluids), equilibrated 24 h

Row | Structure (SMILES) | Solubility FeSSIF ([1]; equilibrated 1 h) | Solubility FeSSIF ([1]; equilibrated 4 h) | Solubility FeSSIF ([1]; equilibrated 24 h) | Solubility SGF [1, 4] | Solubility SGF [1, 5] | Solubility SGF [1, 6] | Time the form is stable when stored ([2]; 25° C./60% RH) | Time the form is stable when stored ([2]; 40° C./75% RH) | Hygroscopicity class [3] | Weight Gain under 80% Relative Humidity [3] | Form change after DVS test (XRPD) [3] | further results
1 | COc1cc(OC)c2c(=O)[nH]c(-c3cc(C)c(OCCO)c(C)c3)nc2c1 [Form CS20, 2-[4-(2-hydroxyethoxy)-3,5-dimethylphenyl]-5,7-dimethoxyquinazolin-4(3H)-one] | 190 µg/mL (≈ 513 µM) | 160 µg/mL (≈ 432 µM) | 220 µg/mL (≈ 594 µM) | 440 µg/mL (≈ 1190 µM) | 410 µg/mL (≈ 1110 µM) | 510 µg/mL (≈ 1380 µM) | at least 2 weeks | at least 2 weeks |  |  |  | Form change and purity decrease after storage ([2]; 25° C./60% RH, 2 weeks): No form change and obvious purity decrease; Form change and purity decrease after storage ([2]; 40° C./75% RH, 2 weeks): No form change and obvious purity decrease
2 | COc1cc(OC)c2c(=O)[nH]c(-c3cc(C)c(OCCO)c(C)c3)nc2c1 [Form CS8, 2-[4-(2-hydroxyethoxy)-3,5-dimethylphenyl]-5,7-dimethoxyquinazolin-4(3H)-one] | 280 µg/mL (≈ 756 µM) |  |  | 430 µg/mL (≈ 1160 µM) |  |  | at least 2 weeks |  | slightly hygroscopic (Increase in mass is less than 2 percent and equal to or greater than 0.2 percent) | 0.34% | No form change | Form change and purity decrease after storage ([2]; 25° C./60% RH, 2 weeks): No obvious form change and purity decrease
3 | COc1cc(OC)c2c(=O)[nH]c(-c3cc(C)c(OCCO)c(C)c3)nc2c1 [Form CS11, 2-[4-(2-hydroxyethoxy)-3,5-dimethylphenyl]-5,7-dimethoxyquinazolin-4(3H)-one] |  |  |  | 710 µg/mL (≈ 1920 µM) | 650 µg/mL (≈ 1750 µM) | 650 µg/mL (≈ 1750 µM) | at least 6 weeks | at least 6 weeks |  |  |  | Form change and purity decrease after storage ([2]; 25° C./60% RH, 6 weeks): No form change and obvious purity decrease; Form change and purity decrease after storage ([2]; 40° C./75% RH, 6 weeks): No form change and obvious purity decrease
4 | COc1cc(OC)c2c(=O)[nH]c(-c3cc(C)c(OCCO)c(C)c3)nc2c1 [Form CS13, 2-[4-(2-hydroxyethoxy)-3,5-dimethylphenyl]-5,7-dimethoxyquinazolin-4(3H)-one] | 130 µg/mL (≈ 351 µM) | 140 µg/mL (≈ 378 µM) | 140 µg/mL (≈ 378 µM) | 350 µg/mL (≈ 945 µM) | 310 µg/mL (≈ 837 µM) | 330 µg/mL (≈ 891 µM) |  |  |  |  |  | 
5 | COc1cc(OC)c2c(=O)[nH]c(-c3cc(C)c(OCCO)c(C)c3)nc2c1 [Form CS9, 2-[4-(2-hydroxyethoxy)-3,5-dimethylphenyl]-5,7-dimethoxyquinazolin-4(3H)-one] | 170 µg/mL (≈ 459 µM) | 130 µg/mL (≈ 351 µM) | 200 µg/mL (≈ 540 µM) | 300 µg/mL (≈ 810 µM) | 310 µg/mL (≈ 837 µM) | 370 µg/mL (≈ 999 µM) | at least 10 months | at least 10 months | almost non hygroscopic | 0.18% | doesn't change; also recorded: No form change | Form change and purity decrease after storage ([2]; 25° C./60% RH, 10 months): No form change and obvious purity decrease; Form change and purity decrease after storage ([2]; 40° C./75% RH, 10 months): No form change and obvious purity decrease
6 | COc1cc(OC)c2c(=O)[nH]c(-c3cc(C)c(OCCO)c(C)c3)nc2c1 [Form CS7, 2-[4-(2-hydroxyethoxy)-3,5-dimethylphenyl]-5,7-dimethoxyquinazolin-4(3H)-one] | 190 µg/mL (≈ 513 µM) | 170 µg/mL (≈ 459 µM) | 290 µg/mL (≈ 783 µM) | 380 µg/mL (≈ 1030 µM) | 420 µg/mL (≈ 1130 µM) | 580 µg/mL (≈ 1570 µM) | at least 4 weeks | at least 4 weeks | slightly hygroscopic (Increase in mass is less than 2 percent and equal to or greater than 0.2 percent) | 0.79% | No form change | Form change and purity decrease after storage ([2]; 25° C./60% RH, 4 weeks): No form change and obvious purity decrease; Form change and purity decrease after storage ([2]; 40° C./75% RH, 4 weeks): No form change and obvious purity decrease; Form change and purity decrease after storage ([2]; 80° C., 1 day): No form change and obvious purity decrease
7 | COc1cc(OC)c2c(=O)[nH]c(-c3cc(C)c(OCCO)c(C)c3)nc2c1 [Form CS2, 2-[4-(2-hydroxyethoxy)-3,5-dimethylphenyl]-5,7-dimethoxyquinazolin-4(3H)-one] | 150 µg/mL (≈ 405 µM) |  | 240 µg/mL (≈ 648 µM) | 490 µg/mL (≈ 1320 µM) |  |  |  |  |  |  |  | solubility at 24 h ([1]; SGF (simulated gastric fluids), simulated gastric fluid, thermodynamic from solid, equilibrated 24 h): 610 µg/mL (≈ 1650 µM)
